Patent US10034839B2, “Compositions and methods for delivery of kinase inhibiting peptides” (PURDUE RESEARCH FOUNDATION, priority 2012, dated 2018)

Key:
THP-1 cells = settings: THP1; corresponds to 60 μg dose of loaded particles; cited from earlier work
[1] = system: IL-6 production in cartilage plugs; test: IL-6 ELISA in bovine knee ex vivo inflammatory model; settings: IL-1β stimulated aggrecan depleted plugs, treatment every two days
Experimental: Cartilage plugs were obtained from three month old bovine knee joints obtained from an abattoir within 24 hours of slaughter (Dutch Valley Veal, South Holland, Ill., USA). The plugs were removed from the load bearing region of the femoral condyle using a 3 mm diameter cork borer. They were then washed three times in serum free medium and equilibrated for three days in 5% FBS supplemented media. Osteoarthritis (OA)-like conditions were simulated by removal of native aggrecan using a previously described protocol. Briefly, plugs were treated with 0.5% (w/v) trypsin in HBSS for 3 hours at 37° C. After trypsin treatment plugs were washed three times in HBSS and incubated with 20% FBS to inactivate residual trypsin activity. Inflammation was initiated in the plugs by treating with 20 ng/mL II-1β. Nanoparticle treatments as specified in Table 1, were added after day two of culture. Fresh IL-1β and nanoparticles were added every two days for an eight day culture period. Media aliquots were collected and stored in −80° C. till further analysis.
IL-6 production was determined with a bovine IL-6 ELISA development kit (Thermo Scientific, Rockford, Ill., USA). Capture antibody was coated overnight onto Nunc MaxiSorp 96-well plates. […] The plate was read on absorbance plate reader at 450 nm with a correction at 550 nm. […]

[2] = previously reported; cited from earlier work
[3] = KAFAK degradability assay in serum; format: in vitro ADME; settings: for recovery at 12 hours / Integral of KAFAK Peak between 30-31% Acetonitrile: 12 hours at 37° C., then 24 hours at 4° C. (nanoparticles: purify & release in 2x salt)
Experimental: Samples tested include: peptide alone, serum alone, peptide in serum, and KAFAK loaded 5% AMPS nanoparticles in serum. Each sample volume also contained 0.5× PBS except when stated. Samples containing peptide initially contained 0.5 mg of peptide alone or 1.12 mg of loaded 5% AMPS particles with an equivalent amount of 0.5 mg peptide. Samples with serum were 0.5× serum and 0.5×PBS. Samples without serum were 0.5×PBS and 0.5× MilliQ water. Peptide alone, serum alone, peptide in serum, loaded nanoparticles alone, and loaded nanoparticles in serum were incubated for 12 hours at 37° C. on a shaker. After the 12 hour incubation, samples not containing nanoparticles were placed in the fridge at 4° C. for 24 hours before evaluation. Samples containing nanoparticles were centrifuged for 2 hours at room temperature at 30,000 rpm in an Optima L-90k Ultracentrifuge (Beckman Coulter, Indianapolis, Ind., USA). The nanoparticle pellet was briefly washed with MilliQ water and then resuspended in solution of 0.5×PBS and 0.5× MilliQ water. Samples were then placed in the fridge for 24 hours. Before the 24 hour nanoparticle sample was placed in the fridge to incubate, but after the pellet was dissolved, an additional amount of 0.257 molar concentration of NaCl was added to induce peptide release. This brought the final NaCl concentration to 0.342 molar or twice normal salt concentration in PBS. Additional NaCl was added to facilitate total release by introducing additional counter ions. Samples were evaluated by reverse phase chromotography on a FPLC (AKTA Explorer, GE Healthcare, Pittsburgh Pa., USA) with a 22/250 C18 prep-scale column (Grace Davidson, Deerfield, Ill., USA) and an acetonitrile gradient with 0.1% trifluoroacetic acid. Peptide was quantified by integrating the area under the peak of the FPLC. Peptide molecular weight was confirmed by time of flight MALDI mass spectrometry with a 4800 Plus MALDI TOF/TOF Analyzer (Applied Biosystems, Foster City, Calif., USA).

[4] = system: citrated bovine whole blood; test: Activated partial thromboplastin time (whole blood coagulation time); settings: for Whole Blood Coagulation Time (s) Average (n = 3): nanoparticles 1.5 mg/ml final concentration in blood, collagen 6 mg/ml, heparin .001 mg/ml; for effect on coagulation: whole blood, nanoparticles 1.5 mg/ml
Experimental: Activated partial thromboplastin time (aPTT) was measured using a Hemochron® Response whole blood coagulation system. 2 ml citrated bovine whole blood and 200 μL nanoparticles in phosphate buffered saline (PBS) pH 7.4 (1.5 mg/ml final concentration in blood) were added to Hemochron® tubes containing colloidal kaolin activating agent and 0.02% thimerosal preservative agent. PBS was calcium and magnesium free. The tubes were then measured and aPTT was recorded. The aPTT for each sample was measured in triplicate. […] Louis, Mo., USA). Measurements with heparin were stopped after 1000 seconds.
As part of a preliminary assessment of utilizing poly(NIPAm-MBA-AMPS) as a blood contacting drug delivery vehicle, whole blood studies were done to determine the hemocompatibility of this system.

blood = test: Hemolysis assay ASTM F756; format: cell-based; settings: nanoparticles 1.5 mg/ml, 37° C., 3 hours; Triton X-100 .01% by volume
Experimental: After 1000 seconds, experiments in the presence of heparin were stopped due to lack of clotting. Hemolytic assay ASTM standard protocol F756 was used to check if hemolysis occurred upon the addition of poly(NIPAm-MBA-AMPS) to the blood.
Hemolysis assays were performed following ASTM F756 with a BioSpec-1601 spectrophotometer (Shimadzu, Columbia, Md., USA). Determination of total blood hemoglobin was accomplished by using Drabkin's reagent and measuring the absorbance of free hemoglobin in solution at 540 nm. The total blood hemoglobin concentration was used to adjust the hemoglobin content of the blood sample to 10 mg±1 mg by adding blood and an equivalent amount of IX PBS solution. Percent hemolysis was normalized by dividing total hemolysis determined by a 0.01% v/v of Triton X-100, subtracting the absorbance of blood only, and setting absorbance of PBS to zero. Blood, 1 ml, was incubated with 100 μl of a 1.5 mg/ml solution of the nanoparticles in PBS at 37° C. for three hours under gentle shaking. After three hours samples were centrifuged at 750 g for 15 minutes. Supernatant was removed, added 1:1 to equivalent volume of Drabkins reagent, and incubated for 15 minutes before measurement. Absorbance measurements at 540 nm were then recorded using a spectrophotometer.

CC(C)C[C@H](NC(=O)[C@H](C)NC(=O)[C@H](CCCCN)NC(=O)[C@H](CCCNC(=N)N)NC(=O)[C@H](Cc1ccc(O)cc1)NC(=O)[C@H](CC(C)C)NC(=O)[C@H](CCCNC(=N)N)NC(=O)[C@H](C)NC(=O)[C@H](C)NC(=O)[C@H](CC(C)C)NC(=O)[C@H](CCCCN)NC(=O)[C@H](C)NC(=O)[C@H](Cc1ccccc1)NC(=O)[C@H](C)NC(=O)[C@@H](N)CCCCN)C(=O)N[C@@H](C)C(=O)N[C@@H](CCCNC(=N)N)C(=O)N[C@@H](CCC(N)=O)C(=O)N[C@@H](CC(C)C)C(=O)NCC(=O)N[C@H](C(=O)N[C@@H](C)C(=O)N[C@@H](C)C(N)=O)C(C)C [KAFAK]
upper toxicity limit (THP-1 cells): 30 µM
effect on IL-6 production [1]: lack of therapeutic activity
serum half-life [2]: less than 12 hours
recovery at 12 hours ([3]; 0.5× PBS and 0.5× MilliQ water (without serum), without serum): 100%
Integral of KAFAK Peak between 30-31% Acetonitrile ([3]; in serum): 0 mAU * ml
recovery at 12 hours ([3]; in serum): 0%
time within which KAFAK peptide degraded ([3]; serum, 37° C., without a carrier): ≤ 12 h
Integral of KAFAK Peak between 30-31% Acetonitrile ([3]; without serum): 593.3 mAU * ml

Collagen
Whole Blood Coagulation Time (s) Average (n = 3) [4]: 26 s
effect on coagulation [4]: induce clotting

Heparin
Whole Blood Coagulation Time (s) Average (n = 3) [4]: >1000 s
effect on coagulation [4]: inhibit coagulation

Triton X-100
Normalized Whole Blood % Hemolysis Average (n = 3) (blood): 100%
